In ChEMBL document CHEMBL1126889, “Dopamine receptor modulation by a highly rigid spiro bicyclic peptidomimetic of Pro-Leu-Gly-NH2” (J Med Chem, 1993):
Residues, ends and D or L forms follow the SMILES beside them.

Columns and labels:
[1] = molecular target: T1, Dopamine receptor (Bos taurus) (UniProt Q95136+P20288); experiment: Tested for ability to enhance the binding of the dopamine receptor agonist [3H]-ADTN to striatal dopamine receptors in vitro at 10 e-6 M; assay type: protein assay
[2] = molecular target: T1, Dopamine receptor (Bos taurus); experiment: Tested for ability to enhance the binding of the dopamine receptor agonist [3H]ADTN to striatal dopamine receptors in vitro; assay type: protein assay

Binding [1] [%]	Binding [2] [%]	Structure (SMILES)
40	–	NC(=O)[C@H]1CS[C@@H]2C[C@]3(CCCN3C(=O)C3CCCN3)C(=O)N12 (some centres not stated)
–	26	CC(C)C[C@H](NC(=O)[C@@H]1CCCN1)C(=O)NCC(N)=O (H-Pro-Leu-Gly-NH2)
